Results on five compounds are retold here after patent publication US10449137B2, “Antimicrobial composition” (Conopco, Inc., priority 2015, dated 2019).

This test relates to E. coli ATCC 10536. Kind of test: In-vitro micro-dilution assay for determination of antimicrobial activity. It is filed as cell-based. To be noted: for Average Residual Log (CFU/mL): E. coli ATCC 10536, 10^6 cells/mL in 10 mM sodium phosphate buffer, contact time 4 hours, about 37° C., plated on MacConkey agar; for antimicrobial action (in words): low concentration, E. coli ATCC 10536, 4 hours contact. The procedure: In-vitro Micro-dilution Assay for Determination of Antimicrobial Activity of Different Compositions:
The organism used for the assay was E. coli ATCC 10536
The procedure that was followed is given below: • a) First, the bacterial suspension corresponding to 10^6 cells/mL was prepared in 10 mM Sodium phosphate buffer. For this purpose the sodium phosphate buffer was prepared as follows: • To prepare the sodium phosphate buffer two different solutions were made. The first solution was prepared by dissolving 27.6 g of NaH2PO4.H20 (MW=138) in 500 mL of MilliQ water and made up the volume to 1 L with MilliQ water. This was then autoclaved and stored at room temperature. The molarity of the resultant solution was 0.2. • Then, the second solution was prepared by dissolving 53.62 g of […] (MW=268.1) in 500 mL of MilliQ water and made up the volume to 1 L with MilliQ water. This was then autoclaved and stored at room temperature. The molarity of the resultant solution was 0.2. • 19 mL of the first solution and 81 mL of the second solution was added together followed by the addition of 100 mL of MilliQ water to obtain a 200 mL solution of sodium phosphate buffer of molarity 0.1 with pH 7.4. • The required level of molarity that was need for the experiments were obtained by diluting the above solution. • b) Then 135 μL/well of the above bacterial suspension was taken and plated in a 96 well microtiter plate. • c) After that 15 μL of 100 mM sodium phosphate buffer was added in all well for all the samples. • d) Then the required test compositions were added in the well for the test. • e) The reaction volume for all the test samples was 300 μL. This reaction volume was adjusted by adding water. • f) The following samples were tested: • Example A: Only Culture • Example B: 1% niacinamide • Example C: 0.01% thymol • Example D: 0.01% terpineol • Example E: 0.01% thymol+0.01% terpineol • Example F: 0.01% Farnesol • Example G: 0.02% Farnesol • Example H: 1% niacinamide+0.01% Farnesol • Example I: 1% niacinamide+0.02% Farnesol • Example 1: 1% niacinamide+0.01% thymol+0.01% terpineol • Example 2: 1% niacinamide+1 μg/mL of LL-37+0.01% thymol+0.01% terpineol • For the above purpose, Thymol was procured from Nishant Aromas, India (Purity: 99%), Terpineol was also procured from Nishant Aromas, India (Purity: 99%), LL-37 (AMP) was procured from Sigma (Cat no: 94261),Niacinamide was procured from Veer Chemicals (Purity: 99%) and Farnesol was procured from Sigma-Aldrich (Cat. No: F203). • g) The contact time for the above test (for all the samples) was 4 hours and the temperature was maintained at about 37° C. • h) After the above contact time, the culture was serially diluted and plated on MacConkey Agar Medium (from Difco) and left it for 24 hours. After that, the residual colonies were counted to determine the bacterial kill/Residual Log.

Consider `NC(=O)c1cccnc1` [Example B, niacinamide], for which the “Average Residual Log (CFU/mL)” value is on record as 6.42 Log (CFU/mL).

`Cc1ccc(C(C)C)c(O)c1` [Example C, thymol]: the “Average Residual Log (CFU/mL)” value was 6.35 Log (CFU/mL) and the “antimicrobial action (in words)” value is on record as “not effective”.

As for `CC(C)=CCCC(C)=CCCC(C)=CCO` [Example F, Farnesol], the “Average Residual Log (CFU/mL)” value was 6.40 Log (CFU/mL).

Turning to `CC(C)=CCCC(C)=CCCC(C)=CCO` [Example G, Farnesol], the “Average Residual Log (CFU/mL)” value is recorded as 6.35 Log (CFU/mL).

In the case of terpineol [Example D], the “Average Residual Log (CFU/mL)” value is listed as 6.45 Log (CFU/mL) and the “antimicrobial action (in words)” value is given as “not effective”.
